{"source": "patent US6303591A", "about": "“21-hydroxy-6,19-oxidoprogesterone (21OH-6OP) and its use as medicament for treating excess of glucocorticoids” (Applied Research Systems ARS Holding NV, priority 1997, dated 2001)", "key": {"[1]": {"target": "T1, GR from rat thymus (thymus cytosol) (Rattus norvegicus, UniProt P06536)", "T1 construct": "Thymuses were used as a source of GR; from tissue; host or cells: thymus cytosol, adrenalectomized male Sprague-Dawley rats", "T1 sequence (P06536 1-795)": "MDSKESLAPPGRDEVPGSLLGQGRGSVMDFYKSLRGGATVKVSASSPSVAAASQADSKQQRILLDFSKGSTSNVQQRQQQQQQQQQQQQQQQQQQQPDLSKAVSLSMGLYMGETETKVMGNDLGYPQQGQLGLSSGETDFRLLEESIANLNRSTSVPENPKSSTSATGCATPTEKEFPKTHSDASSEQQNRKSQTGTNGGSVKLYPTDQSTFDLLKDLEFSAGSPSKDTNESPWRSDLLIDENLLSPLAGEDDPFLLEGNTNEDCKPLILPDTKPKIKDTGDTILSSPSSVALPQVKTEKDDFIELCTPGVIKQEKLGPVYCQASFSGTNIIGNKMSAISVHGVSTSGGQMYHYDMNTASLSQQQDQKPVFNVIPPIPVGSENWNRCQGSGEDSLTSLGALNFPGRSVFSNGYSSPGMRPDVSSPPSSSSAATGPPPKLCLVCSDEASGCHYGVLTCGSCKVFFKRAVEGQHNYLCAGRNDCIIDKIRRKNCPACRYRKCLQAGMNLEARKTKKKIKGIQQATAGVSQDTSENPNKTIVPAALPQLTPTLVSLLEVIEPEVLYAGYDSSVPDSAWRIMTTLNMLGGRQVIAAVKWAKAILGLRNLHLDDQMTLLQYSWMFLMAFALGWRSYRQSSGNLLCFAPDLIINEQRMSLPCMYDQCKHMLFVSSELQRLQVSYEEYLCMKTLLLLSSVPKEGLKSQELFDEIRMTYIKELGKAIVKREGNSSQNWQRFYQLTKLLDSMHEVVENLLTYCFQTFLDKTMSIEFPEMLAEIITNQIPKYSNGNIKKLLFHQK", "assay": "displacement of (^3 H)-B binding to GR, rat thymus cytosol", "method": "(§1) Binding Assay: Adrenalectomized male Sprague-Dawley rats were bled to death by heart puncture. Cold 0.9% NaCI was injected profusely through the aorta until organs were completely blanched. Thymuses were used as a source of GR and kidneys as a source of MR. Homogenization and incubation conditions were performed as previously described, (14) and (15), respectively. Briefly, homogenates performed in cold TEGM buffer at pH 7.4 (0.1 M Tris-HCl, 10 mM EDTA, 10 mM α-mercaptoethanol, 20 mM Na2 MoO4, 25% glycerol, 0.1 mM PMSF, 2.0 TIU/ml aprotinin and 1 mg% Leupeptin) were centrifuged at 37,000 rev. for 30 min at 0° C. Supernatants from this centrifugation are referred to as \"cytosol\". […] (^3 H)-P4 binding to uterus PR was assayed on immature female rats according to Jordan et al (16).\n(§2) The displacement curve of 6,19-oxidoprogesterone is included for comparative purposes."}, "[2]": {"system": "Na^+ retention (sodium-excretion rate)", "assay": "Na^+ -retaining activity, adrenalectomized rats", "assay_type": "in vivo, rat", "method": "FIG. 3: Biological Properties of 21OH-6OP: A) Glycogen storage in vivo: 100 μg steroid/100 g body weight of male rats were injected as indicated in Example 1. Liver glycogen was purified and quantified with Krisman's reagent (17). Controls were injected with vehicle. Results are expressed as means±SEM (n=6). (*): different from controls P<0.02. B) TAT induction in vitro: rat hepatocytes were incubated for 5 h in HAM-F12 medium in the presence of 100 nM steroid and TAT activity was measured. Results are expressed as percentage of enzyme activity (means±SEM, n=4) over controls incubated in the presence of vehicle. (*) different from controls P<0.01. C) Sodium-retaining activity: adrenalectomized rats were treated with the indicated dose of steroids. Results are expressed as the ratio of sodium-excretion rates of steroid-injected animals to the excretion rates of rats injected with vehicle.\nBioassay : Liver glycogen deposition was measured on adrenalectoniized male Sprague-Dawley rats (180-220 g) as follows: steroids were dissolved in ethanol/propylene glycol/0.9% NaCl solution (3:3:34) and 100 μg steroid/l00 g body weight were injected i.m. the previous night. On the morning of the experiment this dose was reinjected intraperitoneally. Three hours later the rats were killed by cervical dislocation and livers were immediately removed. Glycogen purification and quantification were carried out according to Krisman's method (17). Na^+ -retaining properties were measured as described (5). Tyrosine aminotransferase (TAT) was induced in rat hepatocytes isolated by the procedure of Fry et al (18). TAT activity was determined according to Granner and Tomkins (19)."}, "[3]": {"target": "T2, MR from rat kidney (kidney cytosol) (Rattus norvegicus, UniProt P22199)", "T2 sequence (P22199 1-981)": "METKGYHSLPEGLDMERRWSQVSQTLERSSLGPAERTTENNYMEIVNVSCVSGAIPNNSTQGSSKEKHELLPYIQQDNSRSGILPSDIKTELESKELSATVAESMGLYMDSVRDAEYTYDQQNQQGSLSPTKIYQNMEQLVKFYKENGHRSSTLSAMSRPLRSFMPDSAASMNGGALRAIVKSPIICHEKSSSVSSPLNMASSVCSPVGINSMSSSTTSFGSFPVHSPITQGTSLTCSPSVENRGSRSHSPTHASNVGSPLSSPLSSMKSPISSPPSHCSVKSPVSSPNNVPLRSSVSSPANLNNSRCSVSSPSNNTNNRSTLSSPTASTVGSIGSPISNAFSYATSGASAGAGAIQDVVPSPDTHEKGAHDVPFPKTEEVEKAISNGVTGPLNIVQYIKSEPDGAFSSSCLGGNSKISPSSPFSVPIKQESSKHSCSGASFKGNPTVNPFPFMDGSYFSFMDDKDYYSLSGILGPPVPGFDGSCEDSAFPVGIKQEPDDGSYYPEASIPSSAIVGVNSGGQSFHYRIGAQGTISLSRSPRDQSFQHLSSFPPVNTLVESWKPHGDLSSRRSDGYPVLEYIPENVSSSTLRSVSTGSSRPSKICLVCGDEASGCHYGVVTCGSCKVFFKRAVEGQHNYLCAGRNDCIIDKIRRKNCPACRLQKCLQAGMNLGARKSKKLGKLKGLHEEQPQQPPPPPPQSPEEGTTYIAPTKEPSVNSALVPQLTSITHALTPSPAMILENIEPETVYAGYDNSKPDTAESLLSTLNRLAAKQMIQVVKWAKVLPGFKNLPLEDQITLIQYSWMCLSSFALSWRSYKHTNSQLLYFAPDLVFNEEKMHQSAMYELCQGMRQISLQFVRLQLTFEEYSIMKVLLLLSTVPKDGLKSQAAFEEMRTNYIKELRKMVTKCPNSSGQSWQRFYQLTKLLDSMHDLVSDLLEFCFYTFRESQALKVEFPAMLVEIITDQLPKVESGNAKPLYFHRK", "assay": "competition with (^3 H)-ALDO for MR, rat kidney cytosol", "assay_type": "binding", "method": "as §1\nRelative binding affinity (RBA) for partially purified CBG was determined by steroid competition for (^3 H)-B binding as described previously (14).\nas §2"}}, "note": "Entries after “also recorded” stand apart in the source; their conditions may differ."}
{"smiles": "C[C@]12CC[C@H]3[C@@H](C[C@H]4OC[C@@]35CCC(=O)C=C45)[C@@H]1CC[C@@H]2C(=O)CO", "note": "[21OH-6OP, 21-hydroxy-6,19-oxidoprogesterone]", "values": [{"measurement": "increase of binding to GR by 21-hydroxyl, relative to 6OP", "setting": "[1]; 21OH-6OP vs 6OP", "value": "over 40 times"}, {"measurement": "saturation predicted according to mass action", "setting": "[1]; FIG. 2 a, predicted", "value": 95, "unit": "%"}, {"measurement": "tracer displacement", "setting": "[1]; FIG. 2 a, 720 min", "value": 75, "unit": "%"}, {"measurement": "Kd", "setting": "[1]; rat thymus cytosol, 5 nM (^3 H)-B, 12 h at 0° C., read-out: RBA for GR (Kd)", "value": 125, "unit": "nM"}, {"measurement": "Na^+ -retaining (MC) properties (in words)", "setting": "[2]; FIG. 3-C", "value": "almost devoid of MC properties; also recorded: then loosing activity at still higher doses"}, {"measurement": "maximum Na^+ retention", "setting": "[2]; maximum of parabolic dose-response, at high doses", "value": 40, "unit": "%"}, {"measurement": "competition with (^3 H)-ALDO for MR / interaction with MR", "setting": "[3]; kidney cytosol, 5 nM (^3 H)-ALDO, 1.0 μM RU28362", "value": "unable to cross-react with uterus-PR or kidney-MR; also recorded: does not compete efficiently with (^3 H)-ALDO for MR, even when a thousand fold excess was added; also recorded: no ability to interact with MR nor PR"}, {"measurement": "change of binding to MR by 21-hydroxyl introduction", "setting": "[3]; vs 6,19-oxidopregnane skeleton, panel 2-C", "value": "does not improve the binding of the 6,19-oxidopregnane skeleton to MR"}]}
